These results are taken from patent US20210238187A1, “AZIRIDINE CONTAINING EPOTHILONE ANALOGS, METHODS OF SYNTHESIS, METHODS OF TREATMENT, AND DRUG CONJUGATES” (WILLIAM MARSH RICE UNIVERSITY, priority 2017, published 2021).

One assay deals with Tubulin. The assay is described as follows: Tubulin assembly induction. It counts as biochemical. The following applies: […].
For a further assay, the system named is MCF-7. Description: Cytotoxicity (GI50) assay, MCF-7. It counts as cell-based, human. The following applies: Homo sapiens, MCF7, read-out: Cancer cell lines GI50, MCF-7.
A further assay concerns OVCAR-8. The assay is described as follows: Cytotoxicity (GI50) assay, OVCAR-8. The note with it: Homo sapiens, OVCAR-8, read-out: Cancer cell lines GI50, OVCAR-8. It counts as cell-based, human.
Another assay deals with NCI/ADR-RES. The assay is described as follows: Cytotoxicity (GI50) assay, NCI/ADR-RES. The class given is cell-based, human. The following applies: Homo sapiens, NCI/ADR-RES, read-out: Cancer cell lines GI50, NCI/ADR-RES.
The next assay concerns MDA-MB-435. Description: Cytotoxicity (GI50) assay, MDA-MB-435. It counts as cell-based, human. The note with it: Homo sapiens, MDA-MB-435, read-out: Cancer cell lines GI50, MDA-MB-435.
Another assay concerns SNB-75. The assay is described as follows: Cytotoxicity (GI50) assay, SNB-75. It counts as cell-based, human. The note with it: Homo sapiens, SNB-75, read-out: Cancer cell lines GI50, SNB-75.
The next assay has as its system MES SA. Description: Cytotoxicity assay (CellTiter-Glo), MES SA. The class given is cell-based, human. The following applies: Homo sapiens, MES-SA, 72 h, read-out: Cancer cell lines IC50, MES SA. On the technique in general: ATP-based viability assays read luminescence as a measure of living cells.
The next assay has as its system MES SA DX. The assay is described as follows: Cytotoxicity assay (CellTiter-Glo), MES SA DX. It counts as cell-based, human. The note with it: Homo sapiens, MES-SA, 72 h, read-out: Cancer cell lines IC50, MES SA DX.
In the next assay the test system is HEK 293T. The assay is described as follows: Cytotoxicity assay (CellTiter-Glo), HEK 293T. It counts as cell-based. The note with it: Homo sapiens, 72 h, read-out: Cancer cell lines IC50, HEK 293T.

One may read the EC50 as the midpoint of the concentration-response curve. As a reminder, the IC50 is the concentration at which inhibition is half-maximal. In the assay on Tubulin, `C/C(=C\c1csc(C)n1)[C@@H]1C[C@@H]2O[C@]2(C)CCC[C@H](C)[C@H](O)[C@@H](C)C(=O)C(C)(C)[C@@H](O)CC(=O)O1` [compound 2, epothilone B, reference compound] yielded a half-maximal effective concentration (EC50) of […]. The GI50 in the assay on MCF-7 was 9.2 nM; in the assay with OVCAR-8, 15 nM; with NCI/ADR-RES, 19 nM; in the assay with MDA-MB-435, 7 nM; with SNB-75, 8 nM. Also, the IC50 with MES SA was found to be 0.28 nM; with MES SA DX, 1.16 nM; with HEK 293T it was 0.26 nM.

In turn, `C/C(=C\c1coc(C)n1)[C@@H]1C[C@@H]2N(CCO)[C@]2(C)CCC[C@H](C)[C@H](O)[C@@H](C)C(=O)C(C)(C)[C@@H](O)CC(=O)O1` (stereo partly drawn) [compound 16, (1S,3S,7S,10R,11S,12S,16R)-7,11-Dihydroxy-17-(2-hydroxyethyl)-8,8,10,12,16-pentamethyl-3-[(1E)-1-(2-methyl-1,3-oxazol-4-yl)prop-1-en-2-yl]-4-oxa-17-azabicyclo[14.1.0]heptadecane-5,9-dione] showed a 50% effective concentration (EC50) in the assay on Tubulin of 38000 nM. In addition, the GI50 in the assay on MCF-7 was determined as 17 nM; in the assay with OVCAR-8 it was 39 nM; with NCI/ADR-RES, 190 nM; with MDA-MB-435, 11 nM; in the assay with SNB-75 it was 19 nM. Also, the 50% inhibitory concentration (IC50) was found to be 2.71 nM in the assay on MES SA, 79.4 nM in the assay with MES SA DX and 0.95 nM with HEK 293T.

As to `CSc1nc(/C=C(\C)[C@@H]2C[C@@H]3N(CCO)[C@]3(C)CCC[C@H](C)[C@H](O)[C@@H](C)C(=O)C(C)(C)[C@@H](O)CC(=O)O2)co1` (stereo partly drawn) [compound 17, (1S,3S,7S,10R,11S,12S,16R)-7,11-Dihydroxy-17-(2-hydroxyethyl)-8,8,10,12,16-pentamethyl-3-{(1E)-1-[2-(methylsulfanyl)-1,3-oxazol-4-yl]prop-1-en-2-yl}-4-oxa-17-azabicyclo[14.1.0]-heptadecane-5,9-dione], the 50% effective concentration (EC50) in the assay on Tubulin came out at 4000 ± 1000 nM. Further, the GI50 with MCF-7 was 7.5 nM; in the assay with OVCAR-8 it was 25 nM; in the assay with MDA-MB-435, 3.5 nM; in the assay on SNB-75, 13 nM. In addition, the IC50 with MES SA stood at 0.02 nM; with MES SA DX, 1.11 nM; in the assay on HEK 293T it was 0.05 nM.

In the assay with Tubulin, `CSc1nc(/C=C(\C)[C@@H]2C[C@@H]3N(CCOC(C)=O)[C@]3(C)CCC[C@H](C)[C@H](OC(C)=O)[C@@H](C)C(=O)C(C)(C)[C@@H](OC(C)=O)CC(=O)O2)co1` (stereo partly drawn) [compound 18, (1S,3S,7S,10R,11S,12S,16R)-17-(2-Acetoxyethyl)-8,8,10,12,16-pentamethyl-3-{(1E)-1-[2-(methylsulfanyl)-1,3-oxazol-4-yl]prop-1-en-2-yl}-5,9-dioxo-4-oxa-17-azabicyclo[14.1.0]-heptadecane-7,11-diyl diacetate] showed an EC50 greater than 60000 nM. For the same compound, the GI50 turned out to be 1100 nM in the assay on MCF-7; 290 nM in the assay with OVCAR-8; 2300 nM with NCI/ADR-RES; 120 nM in the assay with MDA-MB-435; 290 nM with SNB-75. Also, the half-maximal inhibitory concentration (IC50) was found to be 116 nM in the assay with MES SA, 373 nM in the assay with MES SA DX and 17.9 nM with HEK 293T.

With `C/C(=C\c1csc(CCO)n1)[C@@H]1C[C@@H]2N(CCO)[C@]2(C)CCC[C@H](C)[C@H](O)[C@@H](C)C(=O)C(C)(C)[C@@H](O)CC(=O)O1` (stereo partly drawn) [compound 19, (1S,3S,7S,10R,11S,12S,16R)-7,11-Dihydroxy-17-(2-hydroxyethyl)-3-{(1E)-1-[2-(2-hydroxyethyl)-1,3-thiazol-4-yl]prop-1-en-2-yl}-8,8,10,12,16-pentamethyl-4-oxa-17-azabicyclo-[14.1.0]heptadecane-5,9-dione], the EC50 with Tubulin is greater than 60000 nM. Further, the GI50 is 40 nM in the assay on MCF-7; 38 nM with OVCAR-8; 4800 nM with NCI/ADR-RES; 12 nM in the assay with MDA-MB-435; 36 nM in the assay on SNB-75. For the same compound, the IC50 was 4.98 nM in the assay with MES SA, greater than 1000 nM with MES SA DX and 3.39 nM in the assay with HEK 293T.

`C/C(=C\c1csc(-c2nc(C)cs2)n1)[C@@H]1C[C@@H]2N(CCO)[C@]2(C)CCC[C@H](C)[C@H](O)[C@@H](C)C(=O)C(C)(C)[C@@H](O)CC(=O)O1` (stereo partly drawn) [compound 22, (1S,3S,7S,10R,11S,12S,16R)-7,11-Dihydroxy-17-(2-hydroxyethyl)-8,8,10,12,16-pentamethyl-3-[(1E)-1-(4′-methyl-2,2′-bi-1,3-thiazol-4-yl)prop-1-en-2-yl]-4-oxa-17-azabicyclo[14.1.0]-heptadecane-5,9-dione] registered a half-maximal effective concentration (EC50) in the assay with Tubulin of 17000 nM. Moreover, the GI50 worked out at 7.5 nM in the assay on MCF-7; 18 nM with OVCAR-8; 240 nM with NCI/ADR-RES; 4 nM with MDA-MB-435; 18 nM in the assay with SNB-75. Besides, the results for the IC50 with MES SA, in the assay on MES SA DX and with HEK 293T were 1.86 nM, 392 nM and 1.55 nM, respectively.

As for `C/C(=C\c1ccn(Cn2cccn2)n1)[C@@H]1C[C@@H]2N(CCO)[C@]2(C)CCC[C@H](C)[C@H](O)[C@@H](C)C(=O)C(C)(C)[C@@H](O)CC(=O)O1` (stereo partly drawn) [compound 25, (1S,3S,7S,10R,11S,12S,16R)-7,11-Dihydroxy-17-(2-hydroxyethyl)-8,8,10,12,16-pentamethyl-3-{(1E)-1-[1-(1H-pyrazol-1-ylmethyl)-1H-pyrazol-3-yl]prop-1-en-2-yl}-4-oxa-17-azabicyclo-[14.1.0]heptadecane-5,9-dione], in the assay on Tubulin, the EC50 was greater than 60000 nM. Also, the GI50 with MCF-7 is 32 nM; in the assay with OVCAR-8, 130 nM; with NCI/ADR-RES it was greater than 5000 nM; in the assay with MDA-MB-435, 19 nM; with SNB-75, 24 nM. In addition, the IC50 in the assay on MES SA is 10.3 nM; in the assay on MES SA DX, greater than 2500 nM; in the assay with HEK 293T, 27.7 nM.

Take `CSc1nc(/C=C(\C)[C@@H]2C[C@@H]3N(CCOC(C)=O)[C@]3(C)CCC[C@H](C)[C@H](O)[C@@H](C)C(=O)C(C)(C)[C@@H](O)CC(=O)O2)cs1` (stereo partly drawn) [compound 36, 2-[(1S,3S,7S,10R,11S,12S,16R)-7,11-Dihydroxy-8,8,10,12,16-pentamethyl-3-{(1E)-1-[2-(methylsulfanyl)-1,3-thiazol-4-yl]prop-1-en-2-yl}-5,9-dioxo-4-oxa-17-azabicyclo[14.1.0]-heptadec-17-yl]ethyl acetate]: the concentration for a half-maximal effect (EC50) in the assay on Tubulin came to 4000 nM. In addition, the GI50 in the assay with MCF-7 is 5.5 nM; with OVCAR-8 it was 18 nM; in the assay on MDA-MB-435 it was 3.5 nM; in the assay on SNB-75, 23 nM. The IC50 in the assay with MES SA worked out at 0.29 nM; in the assay on MES SA DX, 0.86 nM; in the assay with HEK 293T, 0.07 nM.

In the assay with Tubulin, `C#CCCN1[C@H]2C[C@@H](/C(C)=C/c3csc(SC)n3)OC(=O)C[C@H](O)C(C)(C)C(=O)[C@H](C)[C@@H](O)[C@@H](C)CCC[C@]21C` (stereo partly drawn) [compound 39, (1S,3S,7S,10R,11S,12S,16R)-17-(But-3-yn-1-yl)-7,11-dihydroxy-8,8,10,12,16-pentamethyl-3-{(1E)-1-[2-(methylsulfanyl)-1,3-thiazol-4-yl]prop-1-en-2-yl}-4-oxa-17-azabicyclo[14.1.0]heptadecane-5,9-dione] registered a 50% effective concentration (EC50) of 3500 nM. Besides, the GI50 stood at 30 nM with MCF-7, 18 nM with OVCAR-8, 3.5 nM in the assay with MDA-MB-435 and 31 nM in the assay on SNB-75. For the same compound, the 50% inhibitory concentration (IC50) in the assay on MES SA is 0.23 nM; with MES SA DX, 0.45 nM; in the assay on HEK 293T, 0.09 nM.
